Measurements taken from PubChem BioAssay (NCI).
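Growth conditions: 96-well plates. Treatment: test compound, 48 hours, 5 concentrations. Analysis: linear interpolation between bracketing concentrations; unreached endpoints set to highest concentration. The concentration for 50% growth inhibition is given as GI50. Definition used: TGI = concentration required for complete inhibition of growth.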

Experiments:
Assay in all cases: growth of human tumour cells (NCI), 48 h
NCI-H460 lung = tested on: NCI-H460 lung
OVCAR-4 ovarian = tested on: OVCAR-4 ovarian
PC-3 prostate = tested on: PC-3 prostate
RPMI-8226 leukemia = tested on: RPMI-8226 leukemia
HOP-92 NSCLC = tested on: HOP-92 NSCLC
RXF 393 renal = tested on: RXF 393 renal
SF-295 CNS = tested on: SF-295 CNS
ACHN renal = tested on: ACHN renal
SR leukemia = tested on: SR leukemia
MCF7 breast = tested on: MCF7 breast
DU-145 prostate = tested on: DU-145 prostate
NCI-H522 lung = tested on: NCI-H522 lung
SF-268 CNS = tested on: SF-268 CNS
IGROV1 ovarian = tested on: IGROV1 ovarian
MOLT-4 leukemia = tested on: MOLT-4 leukemia
UO-31 renal = tested on: UO-31 renal
OVCAR-3 ovarian = tested on: OVCAR-3 ovarian
SNB-19 CNS = tested on: SNB-19 CNS
SK-OV-3 ovarian = tested on: SK-OV-3 ovarian
SW-620 colon = tested on: SW-620 colon
HS 578T breast = tested on: HS 578T breast
HOP-62 NSCLC = tested on: HOP-62 NSCLC
HCC-2998 colon = tested on: HCC-2998 colon
K-562 leukemia = tested on: K-562 leukemia
OVCAR-8 ovarian = tested on: OVCAR-8 ovarian
A498 renal = tested on: A498 renal
SF-539 CNS = tested on: SF-539 CNS
786-0 renal = tested on: 786-0 renal
COLO 205 colon = tested on: COLO 205 colon
T-47D breast = tested on: T-47D breast
KM12 colon = tested on: KM12 colon
BT-549 breast = tested on: BT-549 breast
SNB-75 CNS = tested on: SNB-75 CNS
LOX IMVI melanoma = tested on: LOX IMVI melanoma
EKVX NSCLC = tested on: EKVX NSCLC
CCRF-CEM leukemia = tested on: CCRF-CEM leukemia
MDA-MB-435 = tested on: MDA-MB-435
UACC-257 melanoma = tested on: UACC-257 melanoma
CAKI-1 renal = tested on: CAKI-1 renal
NCI/ADR-RES ovarian = tested on: NCI/ADR-RES ovarian
SK-MEL-2 melanoma = tested on: SK-MEL-2 melanoma
SK-MEL-28 melanoma = tested on: SK-MEL-28 melanoma
MDA-MB-231 breast = tested on: MDA-MB-231 breast
SN12C renal = tested on: SN12C renal
UACC-62 melanoma = tested on: UACC-62 melanoma
HCT-15 colon = tested on: HCT-15 colon
TK-10 renal = tested on: TK-10 renal
U251 CNS = tested on: U251 CNS
HL-60(TB) leukemia = tested on: HL-60(TB) leukemia
OVCAR-5 ovarian = tested on: OVCAR-5 ovarian
A549 NSCLC = tested on: A549 NSCLC
NCI-H226 lung = tested on: NCI-H226 lung
HT29 colon = tested on: HT29 colon
SK-MEL-5 melanoma = tested on: SK-MEL-5 melanoma
M14 melanoma = tested on: M14 melanoma
HCT-116 colon = tested on: HCT-116 colon
NCI-H23 lung = tested on: NCI-H23 lung

O=C(Nc1ccc(-n2cc(-c3ccncc3)c(-c3ccc(Cl)c(O)c3)n2)cc1)c1cc(C(F)(F)F)cc(C(F)(F)F)c1
GI50 (NCI-H460 lung): 3.82 µM | TGI (NCI-H460 lung): 14 µM | GI50 (OVCAR-4 ovarian): 11.2 µM | TGI (OVCAR-4 ovarian): 54.6 µM | GI50 (PC-3 prostate): 3.29 µM | TGI (PC-3 prostate): 28.5 µM | GI50 (RPMI-8226 leukemia): 3.86 µM | TGI (RPMI-8226 leukemia): > 100 µM | GI50 (HOP-92 NSCLC): 3.89 µM | TGI (HOP-92 NSCLC): 26.2 µM | GI50 (RXF 393 renal): 1.32 µM | TGI (RXF 393 renal): 3.1 µM | GI50 (SF-295 CNS): 3.31 µM | TGI (SF-295 CNS): 18.1 µM | GI50 (ACHN renal): 6.47 µM | TGI (ACHN renal): 31.1 µM | GI50 (SR leukemia): 9.51 µM | TGI (SR leukemia): > 100 µM | GI50 (MCF7 breast): 3.53 µM | TGI (MCF7 breast): 13.8 µM | GI50 (DU-145 prostate): 12.3 µM | TGI (DU-145 prostate): 54.7 µM | GI50 (NCI-H522 lung): 14 µM | TGI (NCI-H522 lung): 57.7 µM | GI50 (SF-268 CNS): 7.39 µM | TGI (SF-268 CNS): 51.6 µM | GI50 (IGROV1 ovarian): 11.5 µM | TGI (IGROV1 ovarian): 34.5 µM | GI50 (MOLT-4 leukemia): 8.87 µM | TGI (MOLT-4 leukemia): > 100 µM | GI50 (UO-31 renal): 2.8 µM | TGI (UO-31 renal): 13.5 µM | GI50 (OVCAR-3 ovarian): 3.44 µM | TGI (OVCAR-3 ovarian): 12.2 µM | GI50 (SNB-19 CNS): 8.79 µM | TGI (SNB-19 CNS): > 100 µM | GI50 (SK-OV-3 ovarian): 2.01 µM | TGI (SK-OV-3 ovarian): 6.98 µM | GI50 (SW-620 colon): 5.4 µM | TGI (SW-620 colon): 35.6 µM | GI50 (HS 578T breast): 5.32 µM | TGI (HS 578T breast): > 100 µM | GI50 (HOP-62 NSCLC): 2.11 µM | TGI (HOP-62 NSCLC): 5.58 µM | GI50 (HCC-2998 colon): > 100 µM | TGI (HCC-2998 colon): > 100 µM | GI50 (K-562 leukemia): 4.97 µM | TGI (K-562 leukemia): 88 µM | GI50 (OVCAR-8 ovarian): 6.54 µM | TGI (OVCAR-8 ovarian): 34.8 µM | GI50 (A498 renal): 14.8 µM | TGI (A498 renal): 35 µM | GI50 (SF-539 CNS): 2.95 µM | TGI (SF-539 CNS): 13.8 µM | GI50 (786-0 renal): 3.78 µM | TGI (786-0 renal): 13.6 µM | GI50 (COLO 205 colon): 3.17 µM | TGI (COLO 205 colon): 14 µM | GI50 (T-47D breast): 2.16 µM | TGI (T-47D breast): 9.35 µM | GI50 (KM12 colon): 4.01 µM | TGI (KM12 colon): 16.2 µM | GI50 (BT-549 breast): 13.3 µM | TGI (BT-549 breast): 91.2 µM | GI50 (SNB-75 CNS): 2.82 µM | TGI (SNB-75 CNS): 28.2 µM | GI50 (LOX IMVI melanoma): 2.54 µM | TGI (LOX IMVI melanoma): 10.4 µM | GI50 (EKVX NSCLC): 22 µM | TGI (EKVX NSCLC): > 100 µM | GI50 (CCRF-CEM leukemia): 4.87 µM | TGI (CCRF-CEM leukemia): > 100 µM | GI50 (MDA-MB-435): 4.11 µM | TGI (MDA-MB-435): 80.5 µM | GI50 (UACC-257 melanoma): 8.95 µM | TGI (UACC-257 melanoma): > 100 µM | GI50 (CAKI-1 renal): 7.48 µM | TGI (CAKI-1 renal): 42.9 µM | GI50 (NCI/ADR-RES ovarian): 6.91 µM | TGI (NCI/ADR-RES ovarian): > 100 µM | GI50 (SK-MEL-2 melanoma): 6.61 µM | TGI (SK-MEL-2 melanoma): 31.7 µM | GI50 (SK-MEL-28 melanoma): 4.88 µM | TGI (SK-MEL-28 melanoma): 20 µM | GI50 (MDA-MB-231 breast): 3.29 µM | TGI (MDA-MB-231 breast): 21.6 µM | GI50 (SN12C renal): 7.14 µM | TGI (SN12C renal): 89.9 µM | GI50 (UACC-62 melanoma): 14.4 µM | TGI (UACC-62 melanoma): > 100 µM | GI50 (HCT-15 colon): 3.65 µM | TGI (HCT-15 colon): > 100 µM | GI50 (TK-10 renal): 7.55 µM | TGI (TK-10 renal): 23 µM | GI50 (U251 CNS): 4.91 µM | TGI (U251 CNS): 22 µM | GI50 (HL-60(TB) leukemia): > 100 µM | TGI (HL-60(TB) leukemia): > 100 µM | GI50 (OVCAR-5 ovarian): 21.4 µM | TGI (OVCAR-5 ovarian): > 100 µM | GI50 (A549 NSCLC): 5.43 µM | TGI (A549 NSCLC): 22 µM | GI50 (NCI-H226 lung): 3.63 µM | TGI (NCI-H226 lung): 18.8 µM | GI50 (HT29 colon): 3.43 µM | TGI (HT29 colon): 28.9 µM | GI50 (SK-MEL-5 melanoma): 1.55 µM | TGI (SK-MEL-5 melanoma): 3.63 µM | GI50 (M14 melanoma): 6.34 µM | TGI (M14 melanoma): 89.2 µM | GI50 (HCT-116 colon): 4.72 µM | TGI (HCT-116 colon): 17.5 µM | GI50 (NCI-H23 lung): 6.09 µM | TGI (NCI-H23 lung): 29.5 µM
